{"source": "paper PMC4979471", "about": "(Cell Death Discovery, 2015)", "experiment_in_all_cases": "Kinase selectivity, P33-radiolabeled assay", "format_in_all_cases": "biochemical", "key": {"[1]": {"target": "T1, TLK2 (Homo sapiens, UniProt Q86UE8)", "T1 construct": "purchased Reaction Biology Corp", "T1 sequence (Q86UE8 whole entry)": "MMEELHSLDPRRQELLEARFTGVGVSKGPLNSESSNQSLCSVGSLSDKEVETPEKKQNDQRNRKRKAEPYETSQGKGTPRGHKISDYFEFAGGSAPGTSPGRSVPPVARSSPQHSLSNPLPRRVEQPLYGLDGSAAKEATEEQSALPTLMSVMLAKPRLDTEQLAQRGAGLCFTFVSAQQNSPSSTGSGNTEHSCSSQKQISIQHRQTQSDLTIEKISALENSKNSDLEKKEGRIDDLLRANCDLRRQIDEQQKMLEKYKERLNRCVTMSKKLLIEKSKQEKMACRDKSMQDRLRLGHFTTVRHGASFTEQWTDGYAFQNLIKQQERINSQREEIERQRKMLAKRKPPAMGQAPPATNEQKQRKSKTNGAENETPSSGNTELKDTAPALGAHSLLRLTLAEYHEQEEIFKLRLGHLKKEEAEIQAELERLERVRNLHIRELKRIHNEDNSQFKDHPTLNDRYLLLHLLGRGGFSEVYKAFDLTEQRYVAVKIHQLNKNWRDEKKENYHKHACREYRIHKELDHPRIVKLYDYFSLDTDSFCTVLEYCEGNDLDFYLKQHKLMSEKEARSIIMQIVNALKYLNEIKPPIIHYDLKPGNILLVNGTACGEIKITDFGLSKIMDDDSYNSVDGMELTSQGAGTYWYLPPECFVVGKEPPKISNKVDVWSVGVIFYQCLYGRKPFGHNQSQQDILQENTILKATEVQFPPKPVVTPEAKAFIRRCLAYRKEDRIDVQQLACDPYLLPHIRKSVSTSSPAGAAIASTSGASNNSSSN", "details": "10 μM ATP", "method_in_brief": "(§1)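 Duplicate single-concentration testing used 10 μM compound. The ATP concentration was also 10 μM.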"}, "[2]": {"target": "T2, TTBK2 (Homo sapiens, UniProt Q6IQ55)", "T2 construct": "purchased Reaction Biology Corp", "details": "10 μM ATP", "method_in_brief": "as §1"}, "[3]": {"target": "T3, PKCg (Homo sapiens, UniProt P05129)", "T3 construct": "purchased Reaction Biology Corp", "details": "10 μM ATP", "method_in_brief": "as §1"}, "[4]": {"target": "T4, MEK2 (Homo sapiens, UniProt P36507)", "T4 construct": "purchased Reaction Biology Corp", "T4 sequence (P36507 whole entry)": "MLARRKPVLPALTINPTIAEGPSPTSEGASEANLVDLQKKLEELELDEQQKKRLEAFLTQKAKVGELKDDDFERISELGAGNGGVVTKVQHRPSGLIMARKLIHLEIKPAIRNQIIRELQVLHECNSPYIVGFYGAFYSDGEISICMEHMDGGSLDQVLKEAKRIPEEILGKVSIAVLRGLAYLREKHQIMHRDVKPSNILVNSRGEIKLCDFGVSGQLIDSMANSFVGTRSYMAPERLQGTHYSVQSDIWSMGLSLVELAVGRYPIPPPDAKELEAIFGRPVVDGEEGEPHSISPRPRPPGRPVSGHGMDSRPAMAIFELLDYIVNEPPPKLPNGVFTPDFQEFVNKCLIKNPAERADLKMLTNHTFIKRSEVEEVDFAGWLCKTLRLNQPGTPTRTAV", "method_in_brief": "as §1"}, "[5]": {"target": "T5, CDK6/cyclin D1 (Homo sapiens, UniProt Q00534)", "T5 construct": "purchased Reaction Biology Corp", "T5 sequence (Q00534 whole entry)": "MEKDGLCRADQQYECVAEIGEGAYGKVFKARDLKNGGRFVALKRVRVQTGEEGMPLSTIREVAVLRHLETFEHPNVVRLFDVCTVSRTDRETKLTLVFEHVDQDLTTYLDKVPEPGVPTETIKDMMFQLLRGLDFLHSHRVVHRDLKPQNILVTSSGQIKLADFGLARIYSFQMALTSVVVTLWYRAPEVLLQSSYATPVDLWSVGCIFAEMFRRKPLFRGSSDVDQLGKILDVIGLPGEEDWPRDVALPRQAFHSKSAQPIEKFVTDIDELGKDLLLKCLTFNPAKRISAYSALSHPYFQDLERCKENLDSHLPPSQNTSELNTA", "T5 sequence (P24385 whole entry partner)": "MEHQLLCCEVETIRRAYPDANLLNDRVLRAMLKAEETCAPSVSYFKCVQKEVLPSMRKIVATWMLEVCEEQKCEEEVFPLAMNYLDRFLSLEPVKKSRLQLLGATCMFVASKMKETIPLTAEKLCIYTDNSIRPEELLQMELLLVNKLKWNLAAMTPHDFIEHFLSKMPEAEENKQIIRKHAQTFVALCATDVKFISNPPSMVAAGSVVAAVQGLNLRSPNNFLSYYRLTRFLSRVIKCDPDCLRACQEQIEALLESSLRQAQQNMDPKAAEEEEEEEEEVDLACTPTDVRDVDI", "details": "10 μM ATP", "method_in_brief": "as §1"}, "[6]": {"target": "T6, JAK3 (Homo sapiens, UniProt P52333)", "T6 construct": "purchased Reaction Biology Corp", "T6 sequence (P52333 1-1124)": "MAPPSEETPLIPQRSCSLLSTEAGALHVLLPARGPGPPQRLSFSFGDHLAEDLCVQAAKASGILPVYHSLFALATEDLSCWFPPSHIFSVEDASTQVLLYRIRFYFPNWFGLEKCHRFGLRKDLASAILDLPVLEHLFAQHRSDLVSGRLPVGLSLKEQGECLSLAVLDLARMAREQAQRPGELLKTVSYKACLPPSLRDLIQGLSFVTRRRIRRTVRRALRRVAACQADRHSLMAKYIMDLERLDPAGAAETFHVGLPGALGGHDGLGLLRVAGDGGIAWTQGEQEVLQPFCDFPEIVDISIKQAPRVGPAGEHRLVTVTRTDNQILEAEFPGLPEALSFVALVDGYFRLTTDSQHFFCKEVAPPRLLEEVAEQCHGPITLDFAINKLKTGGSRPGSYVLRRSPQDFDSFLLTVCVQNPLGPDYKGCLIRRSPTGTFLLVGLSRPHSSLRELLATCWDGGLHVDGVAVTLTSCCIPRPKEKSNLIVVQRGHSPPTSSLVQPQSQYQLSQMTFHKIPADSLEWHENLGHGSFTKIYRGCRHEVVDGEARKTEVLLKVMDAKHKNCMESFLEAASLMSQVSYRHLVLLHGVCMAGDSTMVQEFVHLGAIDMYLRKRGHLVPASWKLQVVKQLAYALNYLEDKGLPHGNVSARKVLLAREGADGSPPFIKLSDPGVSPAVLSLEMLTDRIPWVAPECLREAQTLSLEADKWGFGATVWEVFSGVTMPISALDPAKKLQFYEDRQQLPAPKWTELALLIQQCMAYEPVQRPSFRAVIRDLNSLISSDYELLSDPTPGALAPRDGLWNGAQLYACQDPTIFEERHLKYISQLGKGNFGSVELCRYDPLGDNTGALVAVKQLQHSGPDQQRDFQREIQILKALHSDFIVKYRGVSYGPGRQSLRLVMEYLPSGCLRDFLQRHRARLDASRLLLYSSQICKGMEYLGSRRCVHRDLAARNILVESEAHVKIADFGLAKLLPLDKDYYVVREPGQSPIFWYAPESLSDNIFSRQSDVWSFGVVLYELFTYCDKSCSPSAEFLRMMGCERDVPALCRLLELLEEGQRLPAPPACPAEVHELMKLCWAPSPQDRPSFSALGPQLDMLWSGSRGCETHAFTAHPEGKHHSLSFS", "details": "10 μM ATP", "method_in_brief": "as §1"}, "[7]": {"target": "T7, WNK2 (Homo sapiens, UniProt Q9Y3S1)", "T7 construct": "purchased Reaction Biology Corp", "T7 sequence (Q9Y3S1 whole entry)": "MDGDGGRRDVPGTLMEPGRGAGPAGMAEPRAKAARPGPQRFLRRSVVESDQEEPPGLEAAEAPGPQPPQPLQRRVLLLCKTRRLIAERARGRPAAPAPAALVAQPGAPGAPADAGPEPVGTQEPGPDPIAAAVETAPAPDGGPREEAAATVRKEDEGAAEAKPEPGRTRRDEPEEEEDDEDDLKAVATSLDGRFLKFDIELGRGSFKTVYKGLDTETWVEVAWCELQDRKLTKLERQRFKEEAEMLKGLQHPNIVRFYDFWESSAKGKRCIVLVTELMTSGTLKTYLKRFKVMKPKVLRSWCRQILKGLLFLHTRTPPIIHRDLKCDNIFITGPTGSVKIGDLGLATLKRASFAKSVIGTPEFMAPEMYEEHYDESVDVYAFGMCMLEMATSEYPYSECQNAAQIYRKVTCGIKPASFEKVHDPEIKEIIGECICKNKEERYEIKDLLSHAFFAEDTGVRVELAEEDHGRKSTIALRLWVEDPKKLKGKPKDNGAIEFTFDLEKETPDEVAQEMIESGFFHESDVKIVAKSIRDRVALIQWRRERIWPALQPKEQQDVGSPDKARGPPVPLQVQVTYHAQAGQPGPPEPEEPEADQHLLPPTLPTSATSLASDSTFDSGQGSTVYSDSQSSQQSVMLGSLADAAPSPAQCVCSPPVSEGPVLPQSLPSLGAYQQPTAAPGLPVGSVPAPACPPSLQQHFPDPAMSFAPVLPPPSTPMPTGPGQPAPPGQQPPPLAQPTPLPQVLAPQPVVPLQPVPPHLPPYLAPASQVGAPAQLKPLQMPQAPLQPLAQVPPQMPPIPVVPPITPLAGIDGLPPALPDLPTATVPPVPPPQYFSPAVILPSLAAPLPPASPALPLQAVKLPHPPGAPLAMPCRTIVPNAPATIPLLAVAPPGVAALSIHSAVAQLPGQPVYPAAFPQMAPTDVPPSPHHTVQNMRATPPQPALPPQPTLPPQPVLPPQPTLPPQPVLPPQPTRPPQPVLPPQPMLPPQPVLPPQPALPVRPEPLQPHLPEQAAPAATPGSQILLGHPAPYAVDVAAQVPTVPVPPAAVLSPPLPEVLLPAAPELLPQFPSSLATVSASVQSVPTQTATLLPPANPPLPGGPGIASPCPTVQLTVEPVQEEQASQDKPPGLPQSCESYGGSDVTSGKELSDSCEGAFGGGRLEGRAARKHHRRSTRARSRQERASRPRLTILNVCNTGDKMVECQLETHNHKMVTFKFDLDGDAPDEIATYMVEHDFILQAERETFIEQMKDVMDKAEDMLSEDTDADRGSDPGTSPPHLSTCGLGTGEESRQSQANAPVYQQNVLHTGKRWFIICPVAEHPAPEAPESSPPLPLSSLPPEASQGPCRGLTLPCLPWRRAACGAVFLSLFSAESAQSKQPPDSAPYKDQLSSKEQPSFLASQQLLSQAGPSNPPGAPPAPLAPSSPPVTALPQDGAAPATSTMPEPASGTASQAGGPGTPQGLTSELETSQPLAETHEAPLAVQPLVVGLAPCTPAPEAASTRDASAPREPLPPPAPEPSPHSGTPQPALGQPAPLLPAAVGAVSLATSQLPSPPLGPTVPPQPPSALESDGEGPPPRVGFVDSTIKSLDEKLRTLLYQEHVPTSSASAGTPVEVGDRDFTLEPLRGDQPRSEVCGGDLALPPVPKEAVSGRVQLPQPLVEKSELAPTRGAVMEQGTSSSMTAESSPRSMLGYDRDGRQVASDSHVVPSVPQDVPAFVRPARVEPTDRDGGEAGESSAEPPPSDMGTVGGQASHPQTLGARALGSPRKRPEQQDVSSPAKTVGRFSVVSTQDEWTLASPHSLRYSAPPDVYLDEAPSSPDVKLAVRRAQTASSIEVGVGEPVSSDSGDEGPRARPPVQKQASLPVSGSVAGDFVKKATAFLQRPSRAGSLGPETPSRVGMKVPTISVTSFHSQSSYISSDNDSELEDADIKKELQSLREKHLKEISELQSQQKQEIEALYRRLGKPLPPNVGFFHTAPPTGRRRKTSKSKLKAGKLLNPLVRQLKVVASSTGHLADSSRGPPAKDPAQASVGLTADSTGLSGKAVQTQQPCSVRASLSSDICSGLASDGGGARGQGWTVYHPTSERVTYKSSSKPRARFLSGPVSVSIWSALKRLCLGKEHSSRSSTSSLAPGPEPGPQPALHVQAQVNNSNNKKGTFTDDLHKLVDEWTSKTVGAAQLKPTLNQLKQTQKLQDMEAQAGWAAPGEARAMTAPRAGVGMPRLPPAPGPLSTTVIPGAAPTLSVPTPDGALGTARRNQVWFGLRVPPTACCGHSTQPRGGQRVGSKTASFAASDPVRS", "details": "10 μM ATP", "method_in_brief": "as §1"}, "[8]": {"target": "T8, BMPR2 (Homo sapiens, UniProt Q13873)", "T8 construct": "purchased Reaction Biology Corp", "T8 sequence (Q13873 27-1038)": "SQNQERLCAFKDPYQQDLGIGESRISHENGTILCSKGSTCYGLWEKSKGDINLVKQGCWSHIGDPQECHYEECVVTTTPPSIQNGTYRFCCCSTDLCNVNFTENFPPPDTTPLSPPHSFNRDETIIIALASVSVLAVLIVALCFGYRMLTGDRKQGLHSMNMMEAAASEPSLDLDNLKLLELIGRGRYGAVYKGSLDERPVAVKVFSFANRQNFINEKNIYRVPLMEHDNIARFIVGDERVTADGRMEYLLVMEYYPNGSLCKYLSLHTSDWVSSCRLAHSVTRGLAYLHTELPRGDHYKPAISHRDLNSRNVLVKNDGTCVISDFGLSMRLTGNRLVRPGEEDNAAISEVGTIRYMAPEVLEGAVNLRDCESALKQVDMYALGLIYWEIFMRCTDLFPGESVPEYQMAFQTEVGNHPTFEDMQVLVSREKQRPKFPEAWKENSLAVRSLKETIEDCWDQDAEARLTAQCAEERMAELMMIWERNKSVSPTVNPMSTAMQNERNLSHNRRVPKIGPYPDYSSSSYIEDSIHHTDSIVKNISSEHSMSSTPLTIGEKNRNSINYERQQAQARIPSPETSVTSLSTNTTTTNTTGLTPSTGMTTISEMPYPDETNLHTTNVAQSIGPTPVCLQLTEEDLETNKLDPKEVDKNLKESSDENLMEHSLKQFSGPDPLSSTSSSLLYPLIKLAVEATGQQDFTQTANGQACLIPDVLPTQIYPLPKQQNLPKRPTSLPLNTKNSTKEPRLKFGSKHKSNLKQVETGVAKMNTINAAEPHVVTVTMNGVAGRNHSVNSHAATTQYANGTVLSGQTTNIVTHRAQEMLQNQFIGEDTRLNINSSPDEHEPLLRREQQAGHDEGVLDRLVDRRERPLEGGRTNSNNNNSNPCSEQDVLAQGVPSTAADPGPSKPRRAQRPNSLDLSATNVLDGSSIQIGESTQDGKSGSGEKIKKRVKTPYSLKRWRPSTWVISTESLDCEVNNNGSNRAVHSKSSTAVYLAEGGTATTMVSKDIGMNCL", "details": "10 μM ATP", "method_in_brief": "as §1"}, "[9]": {"target": "T9, PIM1 (Homo sapiens, UniProt P11309)", "T9 construct": "purchased Reaction Biology Corp", "T9 sequence (P11309 whole entry)": "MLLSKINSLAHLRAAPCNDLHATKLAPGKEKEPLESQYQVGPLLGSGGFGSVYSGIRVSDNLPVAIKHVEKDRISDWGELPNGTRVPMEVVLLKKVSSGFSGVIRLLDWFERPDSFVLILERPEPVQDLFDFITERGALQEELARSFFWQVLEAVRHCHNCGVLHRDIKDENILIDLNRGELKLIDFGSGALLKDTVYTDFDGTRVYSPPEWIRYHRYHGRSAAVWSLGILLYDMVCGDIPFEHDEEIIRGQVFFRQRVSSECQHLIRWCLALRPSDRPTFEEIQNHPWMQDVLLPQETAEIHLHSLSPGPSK", "details": "10 μM ATP", "method_in_brief": "as §1"}, "[10]": {"details": "read-out: % Enzyme Activity (relative to DMSO controls) AVG"}, "[11]": {"details": "read-out: % Enzyme Activity (relative to DMSO controls) Data 1"}, "[12]": {"details": "read-out: % Enzyme Activity (relative to DMSO controls) Data 2"}}, "note": "Read-outs that look alike come from different tables or passages of the source."}
{"smiles": "CC(C)(C)C(=O)N1N=CC[C@H]1c1ccccc1", "note": "[GSK′963]", "values": [{"measurement": "remaining activity at 10 µM", "setting": "[1]; [10]", "result": 93.2, "unit": "%"}, {"measurement": "remaining activity at 10 µM", "setting": "[1]; [11]", "result": 92.9, "unit": "%"}, {"measurement": "remaining activity at 10 µM", "setting": "[1]; [12]", "result": 93.5, "unit": "%"}, {"measurement": "remaining activity at 10 µM", "setting": "[2]; [10]", "result": 97.8, "unit": "%"}, {"measurement": "remaining activity at 10 µM", "setting": "[2]; [11]", "result": 98.5, "unit": "%"}, {"measurement": "remaining activity at 10 µM", "setting": "[2]; [12]", "result": 97.1, "unit": "%"}, {"measurement": "remaining activity at 10 µM", "setting": "[3]; [10]", "result": 88.5, "unit": "%"}, {"measurement": "remaining activity at 10 µM", "setting": "[3]; [11]", "result": 86.8, "unit": "%"}, {"measurement": "remaining activity at 10 µM", "setting": "[3]; [12]", "result": 90.2, "unit": "%"}, {"measurement": "remaining activity at 10 µM", "setting": "[4]; 10 uM, 10 μM ATP, read-out: % Enzyme Activity (relative to DMSO controls) AVG", "result": 102, "unit": "%"}, {"measurement": "remaining activity at 10 µM", "setting": "[4]; 10 uM, 10 μM ATP, read-out: % Enzyme Activity (relative to DMSO controls) Data 2", "result": 103, "unit": "%"}, {"measurement": "remaining activity at 10 µM", "setting": "[4]; [11]", "result": 101, "unit": "%"}, {"measurement": "remaining activity at 10 µM", "setting": "[5]; [10]", "result": 93.7, "unit": "%"}, {"measurement": "remaining activity at 10 µM", "setting": "[5]; [11]", "result": 94.2, "unit": "%"}, {"measurement": "remaining activity at 10 µM", "setting": "[5]; [12]", "result": 93.2, "unit": "%"}, {"measurement": "remaining activity at 10 µM", "setting": "[6]; [10]", "result": 106, "unit": "%"}, {"measurement": "remaining activity at 10 µM", "setting": "[6]; [11]", "result": 105, "unit": "%"}, {"measurement": "remaining activity at 10 µM", "setting": "[6]; [12]", "result": 106, "unit": "%"}, {"measurement": "remaining activity at 10 µM", "setting": "[7]; [10]", "result": 97.4, "unit": "%"}, {"measurement": "remaining activity at 10 µM", "setting": "[7]; [11]", "result": 99.3, "unit": "%"}, {"measurement": "remaining activity at 10 µM", "setting": "[7]; [12]", "result": 95.5, "unit": "%"}, {"measurement": "remaining activity at 10 µM", "setting": "[8]; [10]", "result": 103, "unit": "%"}, {"measurement": "remaining activity at 10 µM", "setting": "[8]; [11]", "result": 102, "unit": "%"}, {"measurement": "remaining activity at 10 µM", "setting": "[8]; [12]", "result": 103, "unit": "%"}, {"measurement": "remaining activity at 10 µM", "setting": "[9]; [10]", "result": 109, "unit": "%"}, {"measurement": "remaining activity at 10 µM", "setting": "[9]; [11]", "result": 113, "unit": "%"}, {"measurement": "remaining activity at 10 µM", "setting": "[9]; [12]", "result": 106, "unit": "%"}]}
